Data: patent US11548885B2, “NLRX1 ligands” (Landos Biopharma, Inc., priority 2020, dated 2023)

Legend:
CD4+ T cells = assay: Immunological screening in vitro in CD4+ T cells (flow cytometry of TNFα+ and IFNγ+ cells); assay type: cell-based, C57BL/6 mice; conditions: 50 nanomolar, 24 h; for production of TNFα / TNF+ CD4+ T cells: anti-CD3/CD28, PMA and ionomycin last 6 h
Source text: Cell culture. Spleens were excised from C57BL/6 mice. Spleens were crushed between the frosted ends of microscope slides and filtered to provide a cellular suspension. Red blood cells were lysed through hypotonic lysis. Remaining cells were washed and filtered. CD4+ T cells were enriched within the suspension using magnetic sorting based negative selection. Cells were collected and plated within 96 well plates coated with anti-CD3/CD28 and cultured in the presence of NX-64-2, NX-64-3, NX-64-4, NX-64-5, or NX-64-9 at 0 or 50 nanomolar for 24 h. During the last 6 h of culture, cells were stimulated with phorbol 12-myristate-13-acetate (PMA) and ionomycin.
Immunological analysis. Cells were collected from 96 well plates and stained with a cocktail of antibodies for immunophenotyping by flow cytometry. Culture supernatant was collected and assayed for cytokine concentrations by cytometric bead array. Data was captured on a BD FACS Celesta and analyzed using FACSDiva.

OVA-induced model = OVA-induced model of experimental asthma; assay type: in vivo, C57BL6 mice; conditions: oral 20 mg/kg daily days 14-17, day 18, flow cytometry
Method: OVA-induced model. C57BL6 mice were immunized with 10 μg of ovalbumin (OVA) in aluminum hydroxide gel by intraperitoneal injection on day 0 and 7 of the experiment. Mice were then exposed to OVA (8% w/v) by aerosolization for 25 minutes daily between days 14 and 17. Treatment with NX-64-3 (20 mg/kg) or vehicle control occurred daily between days 14 and 17 by oral gavage. Dosage was calculated based off mean body weights. Immunological analysis. Lungs were collected on day 18. Lung tissue was minced and digested in RPMI supplemented with FBS, HEPES, and calcium chloride containing 300 U/mL collagenase and 50 U/mL DNase for 45 minutes at 37° C. After filtration, red blood cells were lysed. Cells were labeled with mixtures of extracellular (CD45, CD3, CD4, CD8, MHCII, CD11b, CD11c, SiglecF, Ly6C) and intracellular (IL10) antibodies in a sequential live staining in 96-well plates in preparation for flow cytometry. Data was captured on a BD FACS Celesta and analyzed using FACSDiva.

[1] = tested on: mice challenged with MOG emulsion; assay: MOG35-55 induced experimental autoimmune encephalomyelitis model; assay type: in vivo, C57BL6 mice; conditions: oral 20 mg/kg daily
mice challenged with DSS = assay: DSS model of colitis (acute model of IBD); assay type: in vivo; conditions: oral 20 mg/kg once daily
Method: DSS model. Mice were given DSS in drinking water for seven days to induce disruption of the epithelial layer. At project initiation, mice were 8 weeks of age and began dosing 24 hours after being placed on DSS. Mice were weighed and scored daily for symptoms of disease (diarrhea, rectal bleeding, rectal inflammation, overall behavior). NX-64-3 was prepared within a 0.5% methylcellulose (12-15 cP) solution. Dosage used was 20 mg/kg delivered once daily. Dosage was calculated based off mean body weights for each gender. Oral dosage was delivered by orogastric gavage of dosage in 0.2 mL volume. Flow Cytometry. Colons were collected into RPMI/FBS buffer containing collagenase (300 U/mL) and DNase (50 U/mL) for digestion. Tissues were digested for 60 minutes under stirring at 37° C. Resultant cellular suspensions were filtered through 100 μm strainers, centrifuged (300×g, 8 min), and washed in fresh RPMI. Following filtration of the resulting single cell suspensions, immune cells were purified by Percoll gradient of cell-containing 40% Percoll overlayed onto 70% Percoll solution. After centrifugation, interphase was collected and washed to obtain enriched colonic lamina propria cell fractions. Cells were labeled with mixtures of extracellular (CD45, CD3, CD4, CD8, CD19, NK1.1, F4/80, CD11b, Gr1) antibodies in a sequential live staining in 96-well plates. […]

[2] = day 18, RNA normalized to beta-actin

| Compound | production of TNFα / TNF+ CD4+ T cells (CD4+ T cells) | production of IFNγ / IFNγ+ CD4+ T cells, in words (CD4+ T cells; relative to vehicle control) | percentage of IL10+CD4+ T cells within the lung (OVA-induced model) | percentage of eosinophils within the lung (OVA-induced model) | recovery from neurological deficiencies [1] | expression of II1b in spinal cord [1, 2] | expression of Tnf in spinal cord [1, 2] | disease activity index ([1]; scored 0-4 daily) | severity of macroscopic lesions (colon) (mice challenged with DSS; 7 days of DSS) | presence of neutrophils in the colonic lamina propria (mice challenged with DSS; day 7, flow cytometry) |
| --- | --- | --- | --- | --- | --- | --- | --- | --- | --- | --- |
| Cn1cc(-c2ccc3[nH]c(Cc4nc(-c5cc(=O)cc[nH]5)no4)nc(=O)c3c2)cn1 [NX-64-9, 2-((3-(4-oxo-1H-pyridin-2-yl)-1,2,4-oxadiazol-5-yl)methyl)-6-(1-methyl-1H-pyrazol-4-yl)quinazolin-4(1H)-one] | significant reduction | – | – | – | – | – | – | – | – | – |
| O=c1nc(Cc2nc(C3=CCCCO3)no2)[nH]c2ccc(-c3ccc(O)nc3)cc12 [NX-64-3, 2-((3-(3,4-dihydro-2H-pyran-6-yl)-1,2,4-oxadiazol-5-yl)methyl)-6-(6-hydroxypyridin-3-yl)quinazolin-4(1H)-one] | significant reduction | greatest magnitude of response | increased | reduced | accelerated | reduced | reduced | reduced | decreased | decreased |
| Cn1cc(-c2ccc3[nH]c(Cc4nc(C5=CCCCO5)no4)nc(=O)c3c2)cn1 [NX-64-4, 2-((3-(3,4-dihydro-2H-pyran-6-yl)-1,2,4-oxadiazol-5-yl)methyl)-6-(1-methyl-1H-pyrazol-4-yl)quinazolin-4(1H)-one] | significant reduction | – | – | – | – | – | – | – | – | – |
